The target of one test is T1, Aβ aggregates (Homo sapiens, UniProt P05067).
T1 construct: compound and antibody double staining of Aβ or tau aggregates; from tissue; host or cells: human AD brain tissue sections (20 μm)
Briefly: Compound and antibody 4G8 double staining of AD brain tissue sections. The note with it: for Overlap between Fluorescence from tested compound and fluorescence from 4G8 observed / Fluorescence from tested compound observed: 100 nM compound, human AD brain tissue sections; for Overlap between Fluorescence from tested compound and fluorescence from 4G8 observed: Aβ antibody 4G8; for Fluorescence from tested compound observed: double staining with Aβ antibody 4G8; for Fluorescence from 4G8 observed: signal of Aβ antibody 4G8 in the section stained with 100 nM of the compound. The test is classed as binding. On the procedure: (§1) To achieve compound and antibody double staining of Aβ or tau aggregates, tissue sections (20 μm) from human AD brain were fixed in 70% EtOH at 4° C. for 3 min, rehydrated in distilled water and then incubated in PBS for 30 min. Sections were blocked and permeabilized in PBS with 5% normal goat serum and 0.1% triton X-100 (blocking buffer) for 1 h at room temperature (RT). Antibody 4G8 (Biolegend, San Diego, Calif., USA) reactive to Aβ, and AT100 (Thermo Fisher Scientific, Waltham, Mass., USA) directed against tau phosphorylated at […] (3) were diluted 1:500 and 1:1000, respectively, in blocking buffer and added to the sections. After 16 h incubation at 4° C. unbound antibody was removed by washing in PBS with 0.1% triton X-100 (PBS-T) 3×10 min. To visualize antibody binding to Aβ or tau aggregates sections were incubated with goat anti-mouse secondary antibody labelled with Alexa 647 (Thermo Fisher Scientific). The antibody was diluted 1:200 in blocking buffer and after 1 h incubation at RT sections were washed in PBS 3×10 min. Example Compound 3a, Example Compound 3b, Example Compound 3c, Example Compound 3d, Example Compound 3e, Example Compound 3f, Example Compound 3g, Example Compound 3h, Example Compound 3i, Example Compound 3j, Example Compound 3k, Example Compound 3m, Example Compound 3n, Example Compound 3o, Example Compound 3p, Example Compound 3q, Example Compound 3r, Example Compound 3s, Example Compound 3t, Example Compound 3u, Example Compound 8a, Comparative Example 1, Comparative Example 2, Comparative Example 3 and Comparative Example 4 were dissolved in DMSO to a concentration of 1.5 mM and then further diluted in PBS to a final concentration of 100 nM compound prior to staining. The tissue sections were then stained for 30 min at RT with these freshly prepared solutions containing 100 nM of the respective compound in PBS. After three washes in PBS the sections were mounted in Dako mounting medium for fluorescence (Dako Cytomation, Glostrup, Denmark) and allowed to dry overnight before analysis. Fluorescence images were collected using an inverted LSM 780 confocal microscope (Carl Zeiss, Oberkochen, Germany) with the following excitation/emission wavelengths optimized for each compound: 458/484-600 (Comparative Example 1, Comparative Example 3), 561/569-648 (Example Compound 3a, Example Compound 3b, Example Compound 3c, Example Compound 3d, Example Compound 3e, Example Compound 3f, Example Compound 3g, Example Compound 3h, Example Compound 3i, Example Compound 3j, Example Compound 3k, Example Compound 3m, Example Compound 3n, Example Compound 3o, Example Compound 3p, Example Compound 3q, Example Compound 3r, Example Compound 3s, Example Compound 3t, Example Compound 3u, Example Compound 8a, Comparative Example 2 and Comparative Example 4) and 633/638-755 (Alexa 647). To visualize autofluorescent lipofuscin excitation/emission wavelengths 405/410-480 or 405/410-514 were used.

The target of another test is T2, tau aggregates (Homo sapiens, UniProt P10636).
T2 construct: tissue sections (20 μm) from human AD brain; from tissue; host or cells: human AD brain tissue sections (20 μm)
Briefly: Compound and antibody AT100 double staining of AD brain tissue sections. The test is classed as binding. To be noted: for Labelling of immune-positive NFTs and dystrophic neurites / Fluorescence from tested compound observed / Overlap between Fluorescence from tested compound and fluorescence from AT-100 observed: 100 nM compound; for Labelling of immune-positive NFTs and dystrophic neurites: AT100 co-staining, AD brain sections; for Fluorescence from tested compound observed / Overlap between Fluorescence from tested compound and fluorescence from AT-100 observed: human AD brain tissue sections; for Fluorescence from tested compound observed: double staining with tau antibody AT-100; for Overlap between Fluorescence from tested compound and fluorescence from AT-100 observed: tau antibody AT-100; for Fluorescence from AT-100 observed: signal of tau antibody AT-100 in the section stained with 100 nM of the compound. As to the method:
as §1

The subject of another test is Aβ and tau deposits. Briefly: Co-staining of AD brain sections with q-FTAA-CN and Example Compound 3a. The test is classed as binding, human. The note with it: simultaneous staining, 100 nM q-FTAA-CN and 100 nM Example Compound 3a. As to the method: Frozen brain sections (20 μm) were fixed in 96% EtOH, rehydrated in 50% EtOH and de-ionized water and then incubated in phosphate buffered saline (PBS, 10 mM phosphate, 140 mM NaCl, 2.7 mM KCl, pH 7.4) for 10 min. Solutions containing 100 nM PBB3 and 100 nM Example Compound 3b or 100 nM q-FTAA-CN and 100 nM Example Compound 3a in PBS were added to the sections. After 30 min, the sections were washed with PBS and mounted with Dako fluorescent mounting medium (Dako Cytomation, Glostrup, Denmark). The mounting medium was allowed to solidify over night before collecting emission spectra of the compounds bound to misfolded A ? and tau using an inverted LSM 780 confocal microscope (Carl Zeiss, Oberkochen, Germany) with excitation wavelengths at 405 nm (PBB3 and q-FTAA-CN) and 561 nm (Example Compound 3a and Example Compound 3b).

Experimental findings from patent publication US11434237B2, “Selective ligands for tau aggregates” (KARIN & STEN MORTSTEDT CBD SOLUTIONS AB, priority 2017, dated 2022) are described below.

T1 sequence (P05067 672-713 limits assumed): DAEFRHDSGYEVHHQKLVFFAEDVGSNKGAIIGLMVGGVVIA
T2 sequence (P10636 1-441 isoform P10636-8): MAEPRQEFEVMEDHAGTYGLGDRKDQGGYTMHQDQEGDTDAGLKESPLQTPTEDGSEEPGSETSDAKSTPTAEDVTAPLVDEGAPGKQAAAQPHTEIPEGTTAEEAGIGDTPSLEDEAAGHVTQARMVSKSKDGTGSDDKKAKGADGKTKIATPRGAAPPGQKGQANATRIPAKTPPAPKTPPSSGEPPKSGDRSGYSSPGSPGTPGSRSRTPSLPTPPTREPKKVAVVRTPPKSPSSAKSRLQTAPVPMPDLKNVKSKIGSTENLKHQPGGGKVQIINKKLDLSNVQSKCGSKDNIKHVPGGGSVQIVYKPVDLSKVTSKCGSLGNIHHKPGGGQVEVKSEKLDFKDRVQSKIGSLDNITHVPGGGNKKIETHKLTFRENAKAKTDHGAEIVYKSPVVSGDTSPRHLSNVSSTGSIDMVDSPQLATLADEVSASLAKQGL

Take `CC[CH-][n+]1c(/C=C/c2ccc(-c3ccc(C(=O)OC)s3)s2)sc2ccccc21` [Example Compound 3g]: at Aβ aggregates, the “Overlap between Fluorescence from tested compound and fluorescence from 4G8 observed” value (from here on “Overlap between Fluorescence … from 4G8 observed”) is “no correlation and no”; the “Fluorescence from tested compound observed” value is recorded as “yes”; the “Fluorescence from 4G8 observed” value is listed as “yes”. In addition, at tau aggregates, the “Labelling of immune-positive NFTs and dystrophic neurites” value (shortened to “Labelling”) is “labelled both immune-positive NFTs and dystrophic neurites”; the “Fluorescence from tested compound observed” value is listed as “yes”; the “Overlap between Fluorescence from tested compound and fluorescence from AT-100 observed” value is listed as “yes”; the “Fluorescence from AT-100 observed” value was “yes”.
`CC[n+]1c(/C=C/c2ccc(-c3ccc4ncsc4c3)s2)sc2ccccc21.[I-]` [Example Compound 3s]: on Aβ aggregates, the “Overlap between Fluorescence … from 4G8 observed” value is “no correlation and no”; the “Fluorescence from tested compound observed” value is given as “yes”; the “Fluorescence from 4G8 observed” value was “yes”. For the same compound, at tau aggregates, the “Labelling” value was “labelled both immune-positive NFTs and dystrophic neurites”; the “Fluorescence from tested compound observed” value is given as “yes”; the “Overlap between Fluorescence from tested compound and fluorescence from AT-100 observed” value is given as “yes”; the “Fluorescence from AT-100 observed” value was “yes”.
For the compound `CC[n+]1c(/C=C/c2ccc(-c3ccc4c(c3)OCO4)s2)sc2ccccc21.[I-]` [Example Compound 3m], on Aβ aggregates, the “Overlap between Fluorescence … from 4G8 observed” value is “no correlation and no”; the “Fluorescence from tested compound observed” value is “yes”; the “Fluorescence from 4G8 observed” value is recorded as “yes”. Moreover, at tau aggregates, the “Labelling” value was “labelled both immune-positive NFTs and dystrophic neurites”; the “Fluorescence from tested compound observed” value is “yes”; the “Overlap between Fluorescence from tested compound and fluorescence from AT-100 observed” value is reported as “yes”; the “Fluorescence from AT-100 observed” value is given as “yes”.
Turning to `CC[n+]1c(/C=C/c2ccc(-c3ccc4nsnc4c3)s2)sc2ccccc21` [Example Compound 3n], at Aβ aggregates, the “Overlap between Fluorescence … from 4G8 observed” value was “no correlation and no”; the “Fluorescence from tested compound observed” value is recorded as “yes”; the “Fluorescence from 4G8 observed” value is reported as “yes”. Also, at tau aggregates, the “Labelling” value was “labelled both immune-positive NFTs and dystrophic neurites”; the “Fluorescence from tested compound observed” value is recorded as “yes”; the “Overlap between Fluorescence from tested compound and fluorescence from AT-100 observed” value was “yes”; the “Fluorescence from AT-100 observed” value is “yes”.
As to `CC[n+]1c(/C=C/c2ccc(-c3ccc(OC)s3)s2)sc2ccccc21.[I-]` [Example Compound 3h], at Aβ aggregates, the “Overlap between Fluorescence … from 4G8 observed” value is “no correlation and no”; the “Fluorescence from tested compound observed” value is “yes”; the “Fluorescence from 4G8 observed” value was “yes”. Also, on tau aggregates, the “Labelling” value is “labelled both immune-positive NFTs and dystrophic neurites”; the “Fluorescence from tested compound observed” value is “yes”; the “Overlap between Fluorescence from tested compound and fluorescence from AT-100 observed” value is reported as “yes”; the “Fluorescence from AT-100 observed” value is “yes”.
In the case of `CC[n+]1c(/C=C/c2ccc(-c3ccc(C(=O)OC)cn3)s2)sc2ccccc21.[I-]` [Example Compound 3k], on Aβ aggregates, the “Overlap between Fluorescence … from 4G8 observed” value was “no correlation and no”; the “Fluorescence from tested compound observed” value is “yes”; the “Fluorescence from 4G8 observed” value is listed as “yes”. Also, on tau aggregates, the “Labelling” value is “labelled both immune-positive NFTs and dystrophic neurites”; the “Fluorescence from tested compound observed” value is listed as “yes”; the “Overlap between Fluorescence from tested compound and fluorescence from AT-100 observed” value is on record as “yes”; the “Fluorescence from AT-100 observed” value is on record as “yes”.
As to `CC[n+]1c(/C=C/c2ccc(-c3ccc(C(=O)OC)s3)s2)sc2ccc(O)cc21.[I-]` [Example Compound 3u], on Aβ aggregates, the “Overlap between Fluorescence … from 4G8 observed” value is “no correlation and no”; the “Fluorescence from tested compound observed” value is reported as “yes”; the “Fluorescence from 4G8 observed” value is listed as “yes”. Also, on tau aggregates, the “Labelling” value was “labelled both immune-positive NFTs and dystrophic neurites”; the “Fluorescence from tested compound observed” value is given as “yes”; the “Overlap between Fluorescence from tested compound and fluorescence from AT-100 observed” value is given as “yes”; the “Fluorescence from AT-100 observed” value was “yes”.
Take `CC[n+]1c(/C=C/c2ccc(-c3ccc(C(=O)OC)[se]3)s2)sc2ccccc21.[I-]` [Example Compound 3r]: on Aβ aggregates, the “Overlap between Fluorescence … from 4G8 observed” value was “no correlation and no”; the “Fluorescence from tested compound observed” value is on record as “yes”; the “Fluorescence from 4G8 observed” value was “yes”. Further, at tau aggregates, the “Labelling” value is “labelled both immune-positive NFTs and dystrophic neurites”; the “Fluorescence from tested compound observed” value is “yes”; the “Overlap between Fluorescence from tested compound and fluorescence from AT-100 observed” value is “yes”; the “Fluorescence from AT-100 observed” value is on record as “yes”.
`CC[n+]1c(/C=C/c2ccc(-c3ccc(C(=O)OC)s3)s2)sc2ccccc21` [Example Compound 3a]: on Aβ aggregates, the “Overlap between Fluorescence … from 4G8 observed” value was “no correlation and no”; the “Fluorescence from tested compound observed” value was “yes”; the “Fluorescence from 4G8 observed” value is recorded as “yes”. On tau aggregates, the “Labelling” value is “labelled both immune-positive NFTs and dystrophic neurites”; the “Fluorescence from tested compound observed” value is “yes”; the “Overlap between Fluorescence from tested compound and fluorescence from AT-100 observed” value is on record as “yes”; the “Fluorescence from AT-100 observed” value is “yes”. Further, the “Deposits labelled” value in the test with Aβ and tau deposits is recorded as “tau aggregates (arrows) displayed Example Compound 3a fluorescence”. For the same compound, in the test on Aβ and tau deposits (FIG. 7A-C), the “Fluorescence from Example 3a observed” value was “yes”; the “Overlap between Fluorescence from Example 3a and fluorescence from q-FTAA-CN” value is listed as “no”.
